Source: PubChem BioAssay AID330 (DTP/NCI, 2004)
Values joined by “and” are separate entries in the source; they are usually repeats but may differ in a detail not shown here. Equal entries are not always repeated. Inconclusive results and toxic doses are left out.

System: P388 leukemia ip, CD2F1 mice, survival T/C
Experiment: NCI In Vivo Anticancer Drug Screen. Data for tumor model P388 Leukemia (intraperitoneal) in CD2F1 (CDF1) mice
Details: endpoint: median survival time, higher = longer survival
Outline: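 Mice carrying the transplanted tumor received test compound or vehicle. Survival was recorded in each group, and the value is the treated-group measurement divided by that of the vehicle-treated control group.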

[1] = dose: 12.5 mg/kg/injection, schedule: Q01DX009 (ip), vehicle: distilled water + Tween-80
[2] = dose: 25.0 mg/kg/injection, schedule: Q01DX009 (ip), vehicle: distilled water + Tween-80
[3] = dose: 50.0 mg/kg/injection, schedule: Q01DX009 (ip), vehicle: distilled water + Tween-80
[4] = dose: 100.0 mg/kg/injection, schedule: Q01DX009 (ip), vehicle: distilled water + Tween-80
[5] = dose: 200.0 mg/kg/injection, schedule: Q01DX009 (ip), vehicle: distilled water + Tween-80
[6] = dose: 12.5 mg/kg/injection, schedule: Q01DX009 (ip), vehicle: Klucel (hydroxypropylcellulose) (HPC)
[7] = dose: 25.0 mg/kg/injection, schedule: Q01DX009 (ip), vehicle: Klucel (hydroxypropylcellulose) (HPC)
[8] = dose: 100.0 mg/kg/injection, schedule: Q04DX003 (ip), vehicle: Klucel (hydroxypropylcellulose) (HPC)
[9] = dose: 200.0 mg/kg/injection, schedule: Q04DX003 (ip), vehicle: Klucel (hydroxypropylcellulose) (HPC)
[10] = dose: 400.0 mg/kg/injection, schedule: Q04DX003 (ip), vehicle: Klucel (hydroxypropylcellulose) (HPC)
[11] = dose: 100.0 mg/kg/injection, schedule: Q01DX001 (ip), vehicle: saline
[12] = dose: 200.0 mg/kg/injection, schedule: Q01DX001 (ip), vehicle: saline

CC1(C)C=Cc2cc(O)ccc2O1
T/C (dose: 25.0 mg/kg/injection, schedule: Q01DX009 (ip), vehicle: saline with Tween-80): 99 % of control
T/C (dose: 50.0 mg/kg/injection, schedule: Q01DX009 (ip), vehicle: saline with Tween-80): 90 % of control
T/C (dose: 100.0 mg/kg/injection, schedule: Q01DX009 (ip), vehicle: saline with Tween-80): 88 % of control
T/C (dose: 200.0 mg/kg/injection, schedule: Q01DX009 (ip), vehicle: saline with Tween-80): 86 % of control

CCOC(=O)c1ccc(N)cc1
T/C [1]: 105 % of control
T/C [2]: 105 % of control
T/C (dose: 37.5 mg/kg/injection, schedule: Q01DX009 (ip), vehicle: saline with Tween-80): 100 % of control
T/C (dose: 37.5 mg/kg/injection, schedule: Q04DX003 (ip), vehicle: saline with Tween-80): 91 % of control
T/C [3]: 104 % of control
T/C (dose: 75.0 mg/kg/injection, schedule: Q01DX009 (ip), vehicle: saline with Tween-80): 109 % of control
T/C (dose: 75.0 mg/kg/injection, schedule: Q04DX003 (ip), vehicle: saline with Tween-80): 100 % of control
T/C [4]: 110 % of control
T/C (dose: 150.0 mg/kg/injection, schedule: Q01DX009 (ip), vehicle: saline with Tween-80): 100 % of control
T/C (dose: 150.0 mg/kg/injection, schedule: Q04DX003 (ip), vehicle: saline with Tween-80): 91 % of control
T/C [5]: 102 % of control

O=C(Nc1ccc(Cl)cc1)Nc1nnc2nc(C3(c4nc5nnc(NC(=O)Nc6ccc(Cl)cc6)n5[nH]c4=O)Cc4ccccc4C3=O)c(=O)[nH]n12
T/C (dose: 60.0 mg/kg/injection, schedule: Q01DX005 (ip), vehicle: saline with Tween-80): 103 % of control
T/C (dose: 120.0 mg/kg/injection, schedule: Q01DX005 (ip), vehicle: saline with Tween-80): 107 % of control
T/C (dose: 240.0 mg/kg/injection, schedule: Q01DX005 (ip), vehicle: saline with Tween-80): 98 % of control

CCOC(=O)C1CC(=O)c2ccccc2C1 (stereo unspecified)
T/C (dose: 6.25 mg/kg/injection, schedule: Q01DX009 (ip), vehicle: distilled water + Tween-80): 101 % of control
T/C [1]: 96 % of control
T/C [2]: 95 % of control
T/C [3]: 102 % of control
T/C [4]: 100 % of control
T/C [5]: 101 % of control
T/C (dose: 400.0 mg/kg/injection, schedule: Q01DX009 (ip), vehicle: distilled water + Tween-80): 109 % of control

C=CCCCCCCCCCSC(=N)N
T/C (dose: 6.25 mg/kg/injection, schedule: Q01DX009 (ip), vehicle: Klucel (hydroxypropylcellulose) (HPC)): 98 % of control
T/C [6]: 93 % of control
T/C [7]: 99 % of control

COc1cccc(N2CCN(CC(O)COc3cc4c(c5c3CCCC5)CCCC4)CC2)c1 (stereo unspecified)
T/C [8]: 93 % of control
T/C [9]: 92 % of control
T/C [10]: 91 % of control

O=C(CCSc1nc(-c2ccccc2)c(-c2ccccc2)o1)N1CCCCC1
T/C (dose: 50.0 mg/kg/injection, schedule: Q01DX009 (ip), vehicle: Klucel (hydroxypropylcellulose) (HPC)): 101 % of control
T/C (dose: 100.0 mg/kg/injection, schedule: Q01DX009 (ip), vehicle: Klucel (hydroxypropylcellulose) (HPC)): 101 % of control
T/C (dose: 200.0 mg/kg/injection, schedule: Q01DX009 (ip), vehicle: Klucel (hydroxypropylcellulose) (HPC)): 117 % of control

Nc1nc(=S)c2[nH]c(-c3ccccc3)nc2[nH]1
T/C (dose: 12.5 mg/kg/injection, schedule: Q01DX005 (ip), vehicle: other): 106 % of control
T/C (dose: 25.0 mg/kg/injection, schedule: Q01DX005 (ip), vehicle: other): 100 % of control
T/C (dose: 50.0 mg/kg/injection, schedule: Q01DX005 (ip), vehicle: other): 102 % of control
T/C (dose: 100.0 mg/kg/injection, schedule: Q01DX005 (ip), vehicle: other): 100 % of control

CN(C)CCSc1nnc(N)s1
T/C (dose: 25.0 mg/kg/injection, schedule: Q01DX001 (ip), vehicle: saline): 108 % of control
T/C (dose: 50.0 mg/kg/injection, schedule: Q01DX001 (ip), vehicle: saline): 109 % of control
T/C [11]: 105 % of control and 109 % of control
T/C [12]: 94 % of control

COC(C(=O)C(O)C(C)O)C1CC2C=C3C=C(OC4CC(OC5CC(O)C(OC)C(C)O5)C(OC(C)=O)C(C)O4)C(C)C(=O)C3=C(O)C2=C(O)C1OC1CC(OC2CC(OC3CC(C)(O)C(O)C(C)O3)C(O)C(C)O2)C(O)C(C)O1 (stereo unspecified)
T/C (dose: 0.25 mg/kg/injection, schedule: Q01DX001 (ip), vehicle: water): 110 % of control
T/C (dose: 0.5 mg/kg/injection, schedule: Q01DX001 (ip), vehicle: water): 112 % of control
T/C (dose: 1.0 mg/kg/injection, schedule: Q01DX001 (ip), vehicle: water): 118 % of control
T/C (dose: 2.0 mg/kg/injection, schedule: Q01DX001 (ip), vehicle: water): 124 % of control
T/C (dose: 8.0 mg/kg/injection, schedule: Q01DX001 (ip), vehicle: water): 154 % of control

Cc1ccc2cccc(OC(=O)Nc3cccc(C(F)(F)F)c3)c2n1
T/C (dose: 60.0 mg/kg/injection, schedule: Q01DX005 (ip), vehicle: Klucel (hydroxypropylcellulose) (HPC)): 101 % of control
T/C (dose: 120.0 mg/kg/injection, schedule: Q01DX005 (ip), vehicle: Klucel (hydroxypropylcellulose) (HPC)): 107 % of control
T/C (dose: 240.0 mg/kg/injection, schedule: Q01DX005 (ip), vehicle: Klucel (hydroxypropylcellulose) (HPC)): 105 % of control

COCC1OC(OC2OCC3OC4(OCC(O)(C(C)OC)C5OCOC54)OC3C2OC)C(OC)C(O)C1OC1OC(C)C(OC)C(OC2OC(C)C3OC4(CC(O)C(OC5CC(OC6CC(C)([N+](=O)[O-])C(OC)C(C)O6)C(OC(=O)c6c(C)c(Cl)c(O)c(Cl)c6OC)C(C)O5)C(C)O4)OC3(C)C2O)C1O (stereo unspecified)
T/C (dose: 12.5 mg/kg/injection, schedule: Q01DX009 (ip), vehicle: saline): 118 % of control
T/C (dose: 25.0 mg/kg/injection, schedule: Q01DX009 (ip), vehicle: saline): 103 % of control
T/C (dose: 50.0 mg/kg/injection, schedule: Q01DX009 (ip), vehicle: saline): 98 % of control
T/C (dose: 100.0 mg/kg/injection, schedule: Q01DX009 (ip), vehicle: saline): 105 % of control

Nc1ncnc2nc(-c3ccc(OCc4ccccc4)cc3)[nH]c12
T/C [11]: 101 % of control
T/C [12]: 94 % of control
T/C (dose: 400.0 mg/kg/injection, schedule: Q01DX001 (ip), vehicle: saline): 98 % of control

Cn1nnc(-c2ccccc2)n1
T/C (dose: 100.0 mg/kg/injection, schedule: Q04DX002 (ip), vehicle: saline with Tween-80): 107 % of control
T/C (dose: 200.0 mg/kg/injection, schedule: Q04DX002 (ip), vehicle: saline with Tween-80): 102 % of control
T/C (dose: 400.0 mg/kg/injection, schedule: Q04DX002 (ip), vehicle: saline with Tween-80): 112 % of control

CC(CO)c1cc2c(cc1O)[C@@]1(C)CCCC(C)(C)[C@@H]1CC2 (stereo partly specified)
T/C (dose: 25.0 mg/kg/injection, schedule: Q01DX005 (ip), vehicle: Klucel (hydroxypropylcellulose) (HPC)): 99 % of control
T/C (dose: 50.0 mg/kg/injection, schedule: Q01DX005 (ip), vehicle: Klucel (hydroxypropylcellulose) (HPC)): 102 % of control
T/C (dose: 100.0 mg/kg/injection, schedule: Q01DX005 (ip), vehicle: Klucel (hydroxypropylcellulose) (HPC)): 89 % of control
T/C (dose: 200.0 mg/kg/injection, schedule: Q01DX005 (ip), vehicle: Klucel (hydroxypropylcellulose) (HPC)): 89 % of control and 93 % of control
T/C (dose: 400.0 mg/kg/injection, schedule: Q01DX005 (ip), vehicle: Klucel (hydroxypropylcellulose) (HPC)): 88 % of control

C1CCC2OCCOCCOC3CCCCC3OCCOCCOC2C1 (stereo unspecified)
T/C [6]: 95 % of control and 96 % of control
T/C [7]: 114 % of control and 91 % of control

Nc1cc2c(cc1C=O)OCO2
T/C [8]: 99 % of control
T/C [9]: 93 % of control
T/C [10]: 107 % of control

C=C[C@H]1[C@H](OC2OC(CO)C(O)C(O)C2O)OC=C2C(=O)N3CCc4c([nH]c5ccccc45)C3C[C@H]21 (stereo partly specified)
T/C (dose: 100.0 mg/kg/injection, schedule: Q01DX001 (ip), vehicle: saline with Tween-80): 107 % of control
T/C (dose: 200.0 mg/kg/injection, schedule: Q01DX001 (ip), vehicle: saline with Tween-80): 94 % of control
T/C (dose: 400.0 mg/kg/injection, schedule: Q01DX001 (ip), vehicle: saline with Tween-80): 89 % of control

ClCCN(CCN(CCCl)c1cccc2ccccc12)c1cccc2ccccc12
T/C (dose: 50.0 mg/kg/injection, schedule: Q04DX003 (ip), vehicle: Klucel (hydroxypropylcellulose) (HPC)): 104 % of control
T/C [8]: 103 % of control
T/C [9]: 107 % of control
